Measurements: US20240075099A1, “COMPOSITIONS, ASSAYS, AND METHODS FOR TARGETING HDM2 AND HDMX TO REVERSE THE INHIBITION OF p53 IN [sequence] CANCERS” (Dana-Farber Cancer Institute, Inc., priority 2016, published 2024)
Entries after “also recorded” stand apart in the source; their conditions may differ.

Assays:
MV4; 11 cells [1] = assay: Viability of pediatric AML cell line; format: cell-based; settings: 11, FIG. 6A
MV4; 11 cells [2] = assay: Cellular uptake, fluorescence scan of lysates from treated cells; format: cell-based; settings: full serum, 4 h, FIG. 6B
Experimental: Cellular Penetrability Assays: To measure the cell penetrability of peptides or crosslinked polypeptides, intact cells are incubated with fluoresceinated crosslinked polypeptides (10 μM) for 4 hrs in serum-free media or in media supplemented with human serum at 37° C., washed twice with media and incubated with trypsin (0.25%) for 10 min at 37° C. The cells are washed again and resuspended in PBS. Cellular fluorescence is analyzed, for example, by using either a FACSCalibur flow cytometer or Cellomics' KineticScan® HCS Reader. Alternative methods include, e.g., high content epifluorescence microscopy, confocal imaging, or fluorescence scan of electrophoresed lysates from FITC-peptide treated cells (see, e.g., LaBelle et al. JCI 2012, 122: 2018-31).

Molm-14 leukemia cells = assay: CellTiter-Glo viability, leukemia cells; format: cell-based; settings: wild-type p53, 10% serum, 48 h, FIG. 11
Experimental: (§1) Importantly, the sensitivity of RS4; 11 and Molm-14 cells is peptide sequence dependent, as the F19A point mutant analog of ALRN-7041, ALRN-7041 F19A, has no effect (FIG. 11). Leukemia cells were treated in 10% serum with a serial dilution of stapled p53 peptides or Nutlin 3a, and then measured by CellTiter-Glo assay.

Nomo-1 = assay: CellTiter-Glo viability, leukemia cells; format: cell-based; settings: mutant p53 (C242 frameshift), 10% serum, 48 h, FIG. 11
Experimental: as §1

RS4; 11 leukemia cells = assay: CellTiter-Glo viability, leukemia cells; format: cell-based; settings: wild-type p53, 10% serum, 48 h, FIG. 11
Experimental: as §1

Thp-1 = assay: CellTiter-Glo viability, leukemia cells; format: cell-based; settings: mutant p53 (R174 frameshift), 10% serum, 48 h, FIG. 11
Experimental: as §1

[3] = system: p53 protein level in RS4; 11 cells; assay: p53 protein level by flow cytometry; format: cell-based; settings: 3 hours, 10% serum, FIG. 12
Experimental: RS4; 11 cells were plated in 6-well plates (10^6/well) in RMPI containing 10% FBS and treated for 3 hours with ALRN-7041, ALRN-7041 F19A, or vehicle control (0.2% DMSO) in the presence of 10% serum. Cells were then harvested by centrifugation, washed in ice cold PBS, and resuspended in 100 viL PBS containing 1 μL Fixable Viability Stain 450 (BD Biosciences, Franklin Lakes. NJ, USA) and incubated in the dark at room temperature for 15 minutes. The cells were stained for p53 immunofluorescence with Cytofix/Cytoperm and the PE Mouse Anti-p53 Set (BD Biosciences) according to the manufacturer's instructions, using 10 viL PE-G59-12 anti-p53 mouse IgG1 or isotype control antibody per 10 6 cells. Stained and fixed cells were analyzed on an LSR II flow cytometer (BD Biosciences). Cell populations were gated on forward and side scatter to select for single cells and on fluorescence at 450 nm to select for live cells, and PE fluorescence in the gated population was measured at 578 nm.

[4] = system: high grade glioma (e.g. GBM) neurospheres bearing mutant p53; assay: CellTiter-Glo viability, neurospheres; format: cell-based; settings: 72 h, FIG. 13
Experimental: (§4) Cells were plated in 96-well opaque plates (5000 cells/well) in Neurobasal-A/DMEM/F-12 mixture media containing HEPES, MEM sodium pyruvate, MEM non-essential amino acids, GlutaMAX, B27 Supplement, H-EGF, H-FGF, H-PDGF-AA, H-PDGF-BB, and heparin. The following day, the cells were treated with the indicated concentrations of drug or vehicle control (0.2% DMSO). […] Cell viability was measured after 72 h by CellTiter-Glo assay (Promega, Madison, WI, USA), performed according to the manufacturer's instructions, and percent viability calculated based on the untreated controls. Error bars are mean±s.e.m for experiments performed in technical triplicate.

[5] = system: Ewing sarcoma cell lines that bear wild-type p53; assay: CellTiter-Glo viability, Ewing sarcoma cell line panel; format: cell-based; settings: 72 h, FIG. 14
Description: (§2) Error bars are mean±s.e.m. for eight technical replicates.
(§3) A panel of Ewing sarcoma cell lines that bear wild-type p53 (black) vs. mutant or deleted p53 (grey) were exposed to a serial dilution of ALRN-7041 (FIG. 14).

[6] = system: Ewing sarcoma cells bearing mutant or deleted p53; assay: as above; format: cell-based; settings: 72 h, FIG. 14
Description: as §2, §3

[7] = system: p53 wild-type TC32 and TC138 Ewing sarcoma cells; assay: Western blot of lysates, p53 pathway; format: cell-based; settings: FIG. 15
Description: Western blot analysis of electrophoresed lysates from p53 wild-type TC32 and TC138 Ewing sarcoma cells treated with ALRN-7041 at the indicated doses and time points and probed with anti-MDM2, p53, and p21 antibodies.

TC32 Ewing sarcoma cells = assay: Annexin V/PI staining and FACS analysis; format: cell-based; settings: 1 μM, 48 hours post-treatment, FIG. 16
Experimental: TC32 Ewing sarcoma cells were treated with vehicle or 1 μM ALRN-7041 and then subjected to Annexin V/PI staining and FACS analysis at 48 hours post-treatment.

[8] = system: TC32 Ewing Sarcoma xenograft; assay: Western analysis of xenograft tumor tissue; format: in vivo, mice; settings: three intravenous doses, 8 hours after last dose, FIG. 17
Experimental: After TC32 Ewing sarcoma tumor engraftment, mice were treated with three intravenous doses of ALRN-7041 or vehicle and sacrificed 8 hours after the last dose. Each lane of the gel represents an individual mouse tumor, subjected to western analysis using anti-MDM2, p53, and p21 antibodies. Anti-tubulin was used as a loading control.

[9] = system: TC32 Ewing Sarcoma xenografts; assay: mRNA quantitation in xenograft tumor tissue; format: in vivo, mice; settings: normalized to vehicle-treated samples, FIG. 18
Description: ALRN-7041 treatment of mice bearing TC32 Ewing Sarcoma xenografts increases MDM2 and p21 mRNA levels in tumor tissue (FIG. 18). Each bar represents the response of an individual mouse tumor, as assessed by replicates of mRNA quantitation. Values are normalized to vehicle-treated samples. Error bars are mean±SD.

[10] = system: TC32 Ewing Sarcoma xenografts; assay: Xenograft tumor growth; format: in vivo, mice; settings: 30 mg/kg IV q.o.d. vs vehicle, two-way ANOVA p=0.0036, FIG. 19
Experimental: Treatment of mice bearing TC32 Ewing Sarcoma xenografts with 30 mg/kg ALRN-7041 IV q.o.d. […] Error bars are mean±SD. For each animal, treatment was instituted when tumors achieved a tumor volume of 100 mm^3, as determined by caliper measurement. Statistical ignificance was calculated by two-way ANOVA analysis (p=0.0036).

[11] = system: DIPG neurospheres bearing wild-type p53
Experimental: as §4

For `COc1ccc(C2=N[C@@H](c3ccc(Cl)cc3)[C@@H](c3ccc(Cl)cc3)N2C(=O)N2CCNC(=O)C2)c(OC(C)C)c1` [Nutlin-3a, reference compound], the cell viability (MV4; 11 cells [1]) was “little to no effect; also recorded: resistant”.
In the case of Ac-LTF*EYWAQZ*SAA-NH2 [ALRN-7041], the cell viability (MV4; 11 cells [1]) is reported as “impairs cell viability in both a dose-responsive and peptide sequence-dependent fashion; also recorded: dose-responsively impairs the viability”, the cellular uptake (MV4; 11 cells [2]) is reported as “readily taken up by cells” and the cell viability (Molm-14 leukemia cells) is reported as “succumb to ALRN-7041 in dose-responsive fashion”. The cell viability (Nomo-1) was “unaffected by treatment”, the cell viability (RS4; 11 leukemia cells) was “succumb to ALRN-7041 in dose-responsive fashion” and the cell viability (Thp-1) was “unaffected by treatment”. For the same compound, the p53 protein level [3] was “dose-responsively upregulates p53 protein level”, the cell viability [4] was “no susceptibility” and the cell viability [5] was “dose-responsively impaired the viability”. The cell viability [6] was “little to no effect”, the MDM2 protein induction [7] was “transient induction” and the p21 protein induction [7] was “robust induction”. For the same compound, the p53 protein induction [7] was “robust induction”, the “Annexin V/PI double positivity (apoptosis)” value (TC32 Ewing sarcoma cells) was “robust Annexin V/PI double positivity” and the “MDM2 protein level in tumor tissue” value [8] was “induces”. For the same compound, the “p21 protein level in tumor tissue” value [8] was “induces”, the “p53 protein level in tumor tissue” value [8] was “induces” and the “MDM2 mRNA level in tumor tissue” value [9] was “increases”. The “p21 mRNA level in tumor tissue” value [9] was “increases”, the tumor growth [10] was “statistically significant suppression of tumor growth” and the “cytotoxic effect compared to a selective small molecule inhibitor of HDM2” value [11] was “markedly enhanced cytotoxic effect”. The cell viability ([11]; 72 h, FIG. 13) was “succumb to treatment”.
